According to patent US20230122249A1, “1H-PYRAZOLO[4,3-d]PYRIMIDINE COMPOUNDS AS TOLL-LIKE RECEPTOR 7 (TLR7) AGONISTS” (BRISTOL-MYERS SQUIBB COMPANY, priority 2020, published 2023):

Assays:
[1] = tested on: CD69 in human whole blood; assay: Induction of CD69 in human whole blood (hWB); assay type: cell-based; conditions: heparinized human whole blood, 17 h, CD69 surface staining; 100% set to 1 uM resiquimod; average where assay repeated
How it was run: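 hWB stimulated with compound at 1 uM final (1 mM stock), 37° C o/n (17 hrs). Surface CD69-PE staining with CD14/CD19 gating, fix/lysis, then flow cytometry read. IC50 curves with 100% set to 1 uM resiquimod.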

human TLR7 = molecular target: T1, human TLR7 (Homo sapiens, UniProt Q9NYK1); assay: Human TLR7 agonist activity (hTLR7 reporter) assay in HEK-Blue TLR7 cells, SEAP readout; assay type: cell-based; conditions: 18 h treatment, average where assay repeated
T1 construct: host or cells: HEK-Blue TLR7 cells (engineered human embryonic kidney cells)
T1 sequence (Q9NYK1 27-1049): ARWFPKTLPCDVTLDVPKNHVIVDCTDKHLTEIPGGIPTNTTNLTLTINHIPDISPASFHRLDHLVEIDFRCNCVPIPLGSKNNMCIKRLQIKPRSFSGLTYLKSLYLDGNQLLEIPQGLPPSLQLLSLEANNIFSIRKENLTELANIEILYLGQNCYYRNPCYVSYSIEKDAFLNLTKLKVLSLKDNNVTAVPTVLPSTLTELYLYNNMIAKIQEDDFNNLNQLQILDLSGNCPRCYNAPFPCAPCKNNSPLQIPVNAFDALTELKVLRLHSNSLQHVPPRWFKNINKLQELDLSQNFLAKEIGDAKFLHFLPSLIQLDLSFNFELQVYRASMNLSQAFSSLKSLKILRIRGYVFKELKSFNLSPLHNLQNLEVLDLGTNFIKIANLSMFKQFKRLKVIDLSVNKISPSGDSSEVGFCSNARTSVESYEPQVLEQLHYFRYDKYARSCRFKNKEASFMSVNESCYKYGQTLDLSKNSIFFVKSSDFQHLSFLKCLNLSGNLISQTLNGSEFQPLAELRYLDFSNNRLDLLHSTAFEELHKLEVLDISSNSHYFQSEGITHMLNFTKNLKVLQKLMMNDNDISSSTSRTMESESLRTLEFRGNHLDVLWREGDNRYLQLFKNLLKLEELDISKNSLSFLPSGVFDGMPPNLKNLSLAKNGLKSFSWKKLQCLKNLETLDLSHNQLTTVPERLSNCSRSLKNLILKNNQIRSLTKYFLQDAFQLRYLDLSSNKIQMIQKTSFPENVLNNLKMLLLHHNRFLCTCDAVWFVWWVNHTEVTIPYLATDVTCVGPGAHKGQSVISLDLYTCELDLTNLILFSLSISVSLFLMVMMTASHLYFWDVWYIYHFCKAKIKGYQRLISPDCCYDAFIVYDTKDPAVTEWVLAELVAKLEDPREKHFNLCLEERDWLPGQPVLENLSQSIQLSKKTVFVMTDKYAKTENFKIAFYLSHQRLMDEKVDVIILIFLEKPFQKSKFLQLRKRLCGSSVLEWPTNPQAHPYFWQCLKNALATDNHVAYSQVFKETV
How it was run: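 HEK-Blue TLR7 cells (15,000/well) treated with compound for 18 h at 37 °C, 5% CO2. Secreted SEAP measured with Quanti-Blue, 30 min, OD 620 nm. EC50 taken as concentration giving half-maximal response between baseline and maximum.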

Compound | EC50 [1] | EC50 (human TLR7)
CCC[C@@H](CCO)Nc1nc(N)nc2c(C)nn(Cc3ccc(CN4CC5(CNC5)C4)cc3OC)c12 [Compound 246] | 11.1 nM | 180 nM
COc1cc(C(=O)N2CC3(CN(C)C3)C2)ccc1Cn1ncc2nc(N)nc(NCc3noc(C)n3)c21 [Compound 247] | 37.1 nM | 197 nM
COc1cc(C(=O)N2CC3(C2)CN(C(C)C)C3)ccc1Cn1ncc2nc(N)nc(NCc3noc(C)n3)c21 [Compound 248] | 25.4 nM | 73 nM
CCC[C@@H](CCO)Nc1nc(N)nc2cnn(Cc3ccc(CN4CC5(CN(CC)C5)C4)cc3OC)c12 [Compound 249] | 1.6 nM | 55.6 nM
CCC[C@@H](CCO)Nc1nc(N)nc2cnn(Cc3ncc(C4CC5(C4)CN(C4CCOCC4)C5)cc3OC)c12 [Compound 250] | 1.1 nM | 45.3 nM
CCC[C@@H](CCO)Nc1nc(N)nc2cnn(Cc3ncc(C4CC5(C4)CN(C(C)C)C5)cc3OC)c12 [Compound 251] | 1.8 nM | 134 nM
CCC[C@@H](CCO)Nc1nc(N)nc2cnn(Cc3ccc(CN4CC5(C4)CN(CC4CCC4)C5)cc3OC)c12 [Compound 252] | 0.4 nM | 6.1 nM
CCC[C@@H](CCO)Nc1nc(N)nc2cnn(Cc3ccc(CN4CC5(C4)CN(CC4CC4)C5)cc3OC)c12 [Compound 253] | 1.3 nM | 14.5 nM
COc1cc(CN2CC3(C2)CS(=O)(=O)C3)ccc1Cn1ncc2nc(N)nc(NCc3noc(C)n3)c21 [Compound 254] | 18.7 nM | 244 nM
CCCCNc1nc(N)nc2cnn(Cc3ccc(CN4CCC5(CC4)CNC5)cc3OC)c12 [Compound 255] | 5.7 nM | 175 nM
CCCCNc1nc(N)nc2cnn(Cc3ccc(CN4CC5(CCNCC5)C4)cc3OC)c12 [Compound 256] | 10.7 nM | 267 nM
CCCCNc1nc(N)nc2cnn(Cc3ccc(CN4CC5(CCNC5)C4)cc3OC)c12 [Compound 257] | 4.8 nM | 198 nM
CCCCNc1nc(N)nc2cnn(Cc3ccc(CN4CCC5(CNC5)C4)cc3OC)c12 [Compound 258] | 6.5 nM | 147 nM
CCCCNc1nc(N)nc2cnn(Cc3ccc(CN4CCC5(CC4)CN(CCO)C5)cc3OC)c12 [Compound 259] | 13.6 nM | 62.5 nM
CCCCNc1nc(N)nc2cnn(Cc3ccc(CN4CC5(CCN(CCO)C5)C4)cc3OC)c12 [Compound 261] | 8 nM | 120 nM
CCCCNc1nc(N)nc2cnn(Cc3ccc(CN4CCC5(C4)CN(CCO)C5)cc3OC)c12 [Compound 262] | 4.4 nM | 64.5 nM
COc1cc(CN2CC3(C2)CN(C(C)C)C3)ccc1Cn1ncc2nc(N)nc(NCc3noc(C)n3)c21 [Compound 263] | 12.7 nM | 68.7 nM
COc1cc(CN2CC3(C2)CN(C(C)=O)C3)ccc1Cn1ncc2nc(N)nc(NCc3noc(C)n3)c21 [Compound 264] | 78.2 nM | 916 nM
CCCCNc1nc(N)nc2cnn(Cc3ccc(CN4CCC5(CCNC5)C4)cc3OC)c12 (stereo not drawn) [Compound 265] | 33.1 nM | 177 nM
CCCCNc1nc(N)nc2cnn(Cc3ccc(CN4CCC5(CCNCC5)CC4)cc3OC)c12 [Compound 266] | 9.3 nM | 141 nM
CCCCNc1nc(N)nc2cnn(Cc3ccc(CN4CCC5(CCN(CCO)C5)C4)cc3OC)c12 (stereo not drawn) [Compound 267] | 1.3 nM | 58.5 nM
CCC[C@@H](CCO)Nc1nc(N)nc2c(C)nn(Cc3ccc(CNC4CC5(C4)CN(C)C5)cc3OC)c12 [Compound 269] | 3.7 nM | 69.9 nM
CCC[C@@H](CCO)Nc1nc(N)nc2cnn(Cc3ncc(C4CC5(CCN(C6CCOCC6)CC5)C4)cc3OC)c12 [Compound 270] | 0.2 nM | 11.5 nM
CCC[C@@H](CCO)Nc1nc(N)nc2cnn(Cc3ncc(C4CCC5(CC4)CN(C4CCOCC4)C5)cc3OC)c12 [Compound 271] | 0.6 nM | 13.3 nM
